Experimental data published in patent publication US11717536B2, “Treatment for periodontitis” (THE UNIVERSITY OF MELBOURNE, priority 2017, dated 2023).
Entries after “also recorded” stand apart in the source; their conditions may differ. Marks after values point to notes of the source that are not given here.

Tests used:
[1] = system: supragingival plaque; assay: Clinical trial: microbial composition of supragingival plaque (16S rRNA gene sequencing), whole community; format: in vivo, human
From the text: (§1) Following the completion of the examination and supragingival plaque collection, participants received a supragingival scaling, clean and prophylaxis of all their teeth. At the completion of the last examination for leg 3, each participant received a professional fluoride treatment.
(§2) Participants had all supragingival plaque collected from the buccal surfaces of their maxillary molars (teeth 17, 16, 26 & 27) with a sterile scaling instrument. The plaque samples from each tooth were placed in separate sterile tubes, to give four samples per participant.
(§3) Genomic DNA was extracted from the plaque using a combination of mechanical disruption of the cells via a Precellys homogeniser and the chemical extraction and purification of the genomic DNA via the PowerLyzer PowerSoil DNA Isolation Kit (MoBio). Quantitation of the extracted DNA was achieved using a Qubit dsDNA High Sensitivity Assay kit (ThermoFisher), before 5 ng DNA was used as template in a PCR reaction that amplified the V4 variable region of the 16S ribosomal RNA gene and individually barcoded the PCR product from each sample. The barcoded DNA was then sequenced using an Ion Torrent Personal Genome machine and Torrent Suite™ Software (ThermoFisher).
(§4) Analysis of the resulting sequence of the 16S ribosomal RNA gene enabled identification of the bacterial population present in each sample, down to the species level. […]
The individual 16S rDNA sequences produced for each sample were used to both classify the microbial lineages present (grouped as species level taxa) and determine the abundances of each taxon. Differences in the bacterial community over time was determined by measuring the changes in the relative taxon abundances for each individual.

[2] = system: Leptotrichia wadei; assay: Clinical trial: plaque microbial analysis, Leptotrichia wadei; format: in vivo; details: 18.8 mg CPP-ACP sugar-free gum, 20 min six times per day, 14 days, vs no gum chewing; supragingival plaque
From the text: as §1, §2, §3, §4

[3] = system: Lautropia mirabilis; assay: Clinical trial: plaque microbial analysis, Lautropia mirabilis; format: in vivo; details: 18.8 mg CPP-ACP sugar-free gum, 20 min six times per day, 14 days, vs no gum chewing; supragingival plaque
From the text: as §1, §2, §3, §4

[4] = system: Actinomyces naeslundii (NCTC 10301); assay: Six species polymicrobial biofilm in constant-depth film fermenter, species composition: A. naeslundii; format: cell-based; details: 19 days; mean ± standard deviation; n = 5-21
Protocol: (§5) To model supragingival plaque six representative oral bacterial species, Streptococcus sanguinis (NCTC 7863), Streptococcus mutans Ingbritt, Actinomyces naeslundii (NCTC 10301), Veillonella parvula (ATCC 17745), Lactobacillus casei (NCDO 161) and Fusobacterium nucleatum (ATCC 10953) (Table 5) were cultured as a polymicrobial biofilm on a human enamel substratum in a constant-depth film fermenter (CDFF; Cardiff University, UK). The CDFF was housed in a 37° C. incubator under anaerobic conditions which were maintained by a constant flow of 5% CO2 in N2 at 1 L/h. The CDFF contained 15 removable polytetrafluoroethylene (PTFE) pans on a circular platform that was rotated at a constant speed of three rpm. The biofilms were grown on three enamel blocks (see below) in each PTFE pan using an artificial saliva medium (ASM, 2.5 g/L mucin type II (porcine, gastric, Sigma), 2.0 g/L bacteriological peptone (Oxoid), 2.0 g/L tryptone (Oxoid), 1.0 g/L yeast extract (Oxoid), 0.35 g/L NaCl, 0.2 g/L KCl, 0.2 mg/L vitamin K, 1 mg/L haemin and 0.1 g/L cysteine hydrochloride) at a constant flow rate of 30 mL/h. Prior to inoculation, the CDFF pan surfaces were conditioned for 24 h with ASM at a flow rate of 10 mL/h (McBain et al (2003) J Appl Microbiol. 94(4):655-66). In order to mimic in vivo bacterial growth conditions in the oral cavity with dietary sugar intake and to provide a high cariogenic challenge, a 1% (w/v) sucrose solution in ASM was pumped into the CDFF four times a day at four hourly intervals with a flow rate of 30 mL/h for 10 min.
(§6) Three treatments were applied to the polymicrobial biofilms: 290 ppm fluoride with 220 ppm fluoride as SnF2 and 70 ppm fluoride as NaF (referred to as SnF2), 2% CPP-ACP and 2% CPP-ACP-SnF2. […]
(§7) For each timepoint, DNA was extracted separately from 8-9 enamel blocks using PowerLyzer® PowerSoil® DNA Isolation Kits (MoBio Laboratories) following the manufacturers “Vacuum Protocol” with a Precellys® bead homogeniser (Bertin Technologies). Samples were quantified using a Qubit™ dsDNA HS assay kit (Life Technologies) before being stored at −80° C. […]

[5] = system: Fusobacterium nucleatum (ATCC 10953); assay: Six species polymicrobial biofilm in constant-depth film fermenter, species composition: F. nucleatum; format: cell-based
Protocol: as §5
(§8) Three treatments were applied to the polymicrobial biofilms: 290 ppm fluoride with 220 ppm fluoride as SnF2 and 70 ppm fluoride as NaF (referred to as SnF2), 2% CPP-ACP and 2% CPP-ACP-SnF2. These treatments were compared with the control in which the test solution was replaced with ASM. Each treatment was applied using two 10 min pulses of the test solution in ASM with a flow rate of 30 mL/h. The first pulse started 30 min prior to the first sucrose pulse of the morning and the second started 3 h 30 min after the final sucrose pulse of the day.
(§9) On day 6, 12 and 19 after inoculation four pans were removed aseptically from the CDFF and replaced with blank sterile pans. Enamel blocks from the pans were removed for bacterial enumeration and transverse microradiography.
Planktonic and loosely attached bacterial cells were firstly removed from the enamel blocks by light washing with 100 μL ASM. To harvest the biofilm cells on each block, the surface was scraped with a sterile scraper with 1 mL of ASM. The biofilm bacterial cells were sedimented by centrifugation (10,000 g, 10 min), the supernatant carefully decanted and the cell pellets stored at −80° C. until required for DNA extraction. The enamel blocks were then used for sectioning and microradiography.
For each timepoint, DNA was extracted separately from 8-9 enamel blocks using PowerLyzer® PowerSoil® DNA Isolation Kits (MoBio Laboratories) following the manufacturers “Vacuum Protocol” with a Precellys® bead homogeniser (Bertin Technologies). Samples were quantified using a Qubit™ dsDNA HS assay kit (Life Technologies) before being stored at −80° C.
The Ion Amplicon Library Preparation Fusion Method (Thermo Fisher Scientific), was adapted for amplification of the V4 region of the 16S rRNA gene. […]

[6] = system: Streptococcus mutans Ingbritt; assay: Six species polymicrobial biofilm in constant-depth film fermenter, species composition: S. mutans; format: cell-based
Protocol: as §5, §6, §7

[7] = system: Streptococcus sanguinis (NCTC 7863); assay: Six species polymicrobial biofilm in constant-depth film fermenter, species composition: S. sanguinis; format: cell-based
Protocol: as §5, §8, §9
Planktonic and loosely attached bacterial cells were firstly removed from the enamel blocks by light washing with 100 μL ASM. […]
as §7

[8] = system: Veillonella parvula (ATCC 17745); assay: Six species polymicrobial biofilm in constant-depth film fermenter, species composition: V. parvula; format: cell-based
Protocol: as §5, §6, §7

[9] = 19 days, mean ± standard deviation, n = 5-21

With “Casein phosphopeptide-amorphous calcium phosphate [CPP-ACP]” the “increases in commensal/beneficial species at the 56.4 mg dose compared with the 18.8 mg dose” value ([1]; 56.4 mg CPP-ACP gum, 20 min six times per day, 14 days) was “significantly greater”, the “proportion of pathogenic species (pathobionts)” value ([1]; CPP-ACP gum, 14 days, vs no treatment) was “concomitant reduction” and the “proportion of the health-associated symbionts” value ([1]; CPP-ACP treatment, randomised controlled clinical study) was “significant increase”. The “% decrease in relative abundance, Leptotrichia wadei” value [2] was 91% (p < 0.001), the “% decrease in relative abundance, Lautropia mirabilis” value [3] was 70% (p < 0.05) and the “A. naeslundii as a percentage of total bacteria in the biofilm” value [4] was 11.93 ± 2.34^b %. The “F. nucleatum as a percentage of total bacteria in the biofilm” value [5, 9] was 2.43 ± 1.21^ace %, the “change in abundance of F. nucleatum after treatment relative to the control (increase)” value ([5]; day 19, FIG. 5B) was 355% and the “change in abundance of F. nucleatum relative to the control (in words)” value ([5]; twice daily treatment, day 19) was “significantly increased; also recorded: reproducible increases”. The “S. mutans as a percentage of total bacteria in the biofilm” value [6, 9] was 58.70 ± 5.47^b %, the “change in abundance of S. mutans relative to the control (in words)” value ([6]; twice daily treatment, day 19) was “remained relatively constant” and the “S. sanguinis as a percentage of total bacteria in the biofilm” value [7, 9] was 19.85 ± 2.86^bc %. For the same substance, the “change in abundance of S. sanguinis relative to the control (in words)” value ([7]; twice daily treatment, day 19) was “significantly increased; also recorded: reproducible increases”, the “V. parvula as a percentage of total bacteria in the biofilm” value [8, 9] was 6.71 ± 0.89^c % and the “change in abundance of V. parvula relative to the control (in words)” value ([8]; twice daily treatment, day 19) was “remained relatively constant”.
